Test results published in US8673914B2, “Use of phosphodiesterase inhibitors for treating multidrug resistance” (St. John's University, priority 2011, dated 2014).
Like-named read-outs stand apart in the source and are kept apart here. Marks after values point to notes of the source that are not given here.

How the values were obtained:
[1] = system: HEK293/pcDNA3.1; assay: MTT cytotoxicity/reversal assay (Example 1); type: cell-based; conditions: read-out: IC50 of cisplatin; HEK293/pcDNA3.1; alone
Description: (§1) The KB-C2 and KB-3-1 were kindly provided by Dr. Akiyama (Kagoshima University, Japan). HEK293-pcDNA3.1 and wild-type HEK/ABCG2 transfected cells were established by selection with G418 after transfecting HEK293 with either (1) empty pcDNA3.1 vector or (2) pcDNA3.1 vector containing full length of ABCG2 coding arginine (R) at amino acid position 482, and were then cultured in a medium with 2 mg/ml of G418 (ABCG2-482-R2 cells). Similarly, the HEK/MRP1 (ABCC1) and HEK/ABCB1 cells were generated by transfecting the HEK293 cells with either the MRP1 expression vector or the ABCB1 expression vector. All of the cell lines were grown in Dulbecco's modified Eagle's medium (DMEM) supplemented with 10% bovine serum, 100 units/ml penicillin, and […] streptomycin in a humidified incubator containing 5% CO2 at 37° C.
(§2) The MTT assay was used to assess cytotoxicity. The cultured cells were harvested with trypsin and resuspended in a final concentration of 4×10^3 cells/well for KB-3-1; 7.5×10^3 cells/well for KB-C2; and 8×10^3 for all of the other cell lines used in this study. Cells were seeded evenly in 96-well multiplates. […] After 68 h of incubation, 20 μl of the MTT solution (4 mg/ml) was added to each well, and the plate was further incubated for 4 h at 37° C., allowing viable cells to convert the yellow-colored MTT into dark-blue formazan crystals. Subsequently, the medium was discarded, and 100 μl of DMSO was added into each well to dissolve the formazan crystals, generating purple color. The absorbance was determined at 570 nm by an OPSYS Microplate Reader from DYNEX Technologies, Inc. (Chantilly, Va.). […] The degree of the reversal of multidrug resistance (MDR) was calculated by dividing the IC50 of an anticancer drug, e.g., an antineoplastic or chemotherapeutic drug (agent, compound), in a cell type in the absence of a reversal agent by the IC50 of the anticancer drug in the same cell type in the presence of the reversal agent. The IC50 values were calculated from survival curves using the Bliss method.

[2] = system: HEK 293-pcDNA-3.1; assay: MTT cytotoxicity assay (Example 4); type: cell-based
Description: (§3) The MRP7 cDNA was generously provided by Dr. Gary Kruh (University of Illinois, Chicago, Ill.) and inserted into the pcDNA3.1 expression vector. […] Individual colonies were selected in medium containing G418 (1 mg/ml) and cultured for further analysis.
(§4) MTT colorimetric assay was performed to analyze the drug sensitivity as previously described (Shi et al. (2007) Cancer Res. 67:11012-20). HEK293-pcDNA3.1 and HEK/MRP7 cells were seeded into 96-well plates in triplicate at 6000 cells/well.
(§5) After drug incubation of 68 h, 20 μl MTT solution (4 mg/ml) was added into each well. […] The Bliss method was used to calculate the IC50 values according to survival curves.

[3] = system: KB-3-1; assay: MTT cytotoxicity/reversal assay (Example 2); type: cell-based, human; conditions: read-out: IC50 of cisplatin, alone
Description: (§6) The ABCB1-overexpressing drug resistant cell line KB-V1 (generously provided by Dr. Gottesman, NCI, NIH) was established by a stepwise concentration increase of vinblastine in the culture medium of KB-3-1 cells and subsequently culturing these cells in medium with 1 μg/mL of vinblastine. An ABCC1-overexpressing MDR cell line, KB-CV60, was also derived from KB-3-1 cells and was maintained in medium with 1 μg/mL of cepharanthine and 60 ng/mL of vincristine. Both KB-C2 and KB-CV60 cell lines were kindly provided by Dr. Akiyama (Kagoshima University, Japan). HEK293/pcDNA3.1, ABCG2-482-R5, ABCG2-482-G2, and ABCG2-482-T7 cells were established by selection with 2 mg/mL G418 after transfecting HEK293 with either (1) empty pcDNA3.1 vector or (2) pcDNA3.1 vector containing full length ABCG2 coding either (2a) wild-type arginine (R) or mutant (2b) glycine (G) or (2c) threonine (T) at amino acid position 482, respectively. The wild-type ABCG2-overexpressing drug-resistant cell line MCF-7/Flv1000 was cultured in the medium with 1 μM of flavopiridol. […] Another G482 mutant ABCG2-overexpressing drug resistant cell line, S1-M1-80, was maintained in the medium with 80 μM of mitoxantrone. […] All the cell lines were grown as adherent monolayers in flasks with DMEM (Dulbecco's modified Eagle's medium) culture medium (Hyclone Co.) containing 10% bovine serum at 37° C. in a humidified atmosphere of 5% CO2.
(§7) Cells in 96-well plates were preincubated with or without the reversal agents for 1 h and then different concentrations of chemotherapeutic drugs were added into designated wells. After 68 h of incubation, MTT solution (4 mg/mL) was added to each well, and the plate was further incubated for 4 h, allowing viable cells to change the yellow-colored MTT into dark-blue formazan crystals. Subsequently the medium was discarded, and […] of DMSO was added into each well to dissolve the formazan crystals. The absorbance was determined at 570 nm by an OPSYS MR Microplate Reader from DYNEX Technologies, Inc.

[4] = system: KB-V1; assay: MTT cytotoxicity/reversal assay (Example 2); type: cell-based, human; conditions: read-out: IC50 of cisplatin, alone
Description: as §6, §7

[5] = system: KB-C2; assay: MTT cytotoxicity/reversal assay (Example 2); type: cell-based, human; conditions: read-out: IC50 of cisplatin, alone
Description: as §6, §7

[6] = system: S1/FLV5000; assay: cells; type: cell-based; conditions: S1/FLV5000, alone
Description: as §6, §7

[7] = system: KB-3-1; assay: MTT cytotoxicity/reversal assay (Example 1); type: cell-based, human; conditions: read-out: IC50 of cisplatin, alone
Description: as §1, §2

[8] = system: MCF7/ADVP3000; assay: MTT cytotoxicity/reversal assay (Example 2); type: cell-based
Description: as §6, §7

[9] = system: MCF-7; assay: MTT cytotoxicity/reversal assay (Example 2); type: cell-based
Description: as §6, §7

[10] = system: S1; assay: MTT cytotoxicity/reversal assay (Example 2); type: cell-based
Description: as §6, §7

[11] = system: HEK293/pcDNA3; assay: MTT cytotoxicity/reversal assay (Example 2); type: cell-based
Description: as §6, §7

[12] = system: S1-M1-80; assay: MTT cytotoxicity/reversal assay (Example 2); type: cell-based
Description: as §6, §7

[13] = system: MCF-7/Flv1000; assay: MTT cytotoxicity/reversal assay (Example 2); type: cell-based
Description: as §6, §7

[14] = MTT cytotoxicity assay (Example 4); type: cell-based; conditions: human; HEK/MRP7; alone; read-out: IC50 of docetaxel;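 as to fold-resistance, docetaxel: drug IC50 in HEK/MRP7 divided by IC50 in parental HEK293-pcDNA3.1 cells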
Description: as §3, §4, §5

[15] = system: HEK/MRP7; assay: MTT cytotoxicity assay (Example 4); type: cell-based; conditions: alone;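 as to fold-resistance, docetaxel: drug IC50 in HEK/MRP7 divided by IC50 in parental HEK293-pcDNA3.1 cells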
Description: as §3, §4, §5

[16] = system: HEK/ABCG2-T7; assay: MTT cytotoxicity/reversal assay (Example 2)
Description: as §6, §7

[17] = system: HEK/ABCG2-R5; assay: MTT cytotoxicity/reversal assay (Example 2)
Description: as §6, §7

[18] = system: HEK/ABCG2-G2; assay: MTT cytotoxicity/reversal assay (Example 2)
Description: as §6, §7

[19] = read-out: IC50 of cisplatin, alone
[20] = Homo sapiens, alone, read-out: IC50 of flavopiridol

For `N.N.[Cl][Pt][Cl]` [Cisplatin, cisplatin], the IC50 [1] was 890 ± 33.9 µM, the IC50 ([2]; read-out: IC50 of cisplatin, HEK 293-pcDNA-3.1, alone) was 1.57 ± 0.0849 µM and the IC50 [3] was 1.75 ± 0.161 µM. The IC50 [4] was 1.76 ± 0.178 µM, the IC50 [5] was 1.73 ± 0.083 µM and the IC50 ([6]; read-out: IC50 of cisplatin) was 53.5 ± 5.8 µM. For the same compound, the IC50 [7] was 1.9 ± 0.0709 µM, the IC50 [8, 19] was 31.1 ± 3.2 µM and the IC50 [9, 19] was 34.4 ± 1.76 µM. For the same compound, the IC50 [10, 19] was 14.7 ± 2.23 µM, the IC50 [11, 19] was 1.63 ± 0.17 µM and the IC50 [12, 19] was 18 ± 2.59 µM. The IC50 ([13]; read-out: IC50 of cisplatin, MCF-7/Flv1000, alone) was 35.1 ± 1.86 µM.

With `CC(=O)O[C@@]12CO[C@@H]1C[C@H](O)[C@@]1(C)C(=O)[C@H](O)C3=C(C)[C@@H](OC(=O)[C@H](O)[C@@H](NC(=O)OC(C)(C)C)c4ccccc4)C[C@@](O)([C@@H](OC(=O)c4ccccc4)[C@H]21)C3(C)C` [Docetaxel, docetaxel] the “fold-resistance, docetaxel” value ([2]; HEK 293-pcDNA-3.1, alone) was “(1.0)”, the IC50 ([2]; read-out: IC50 of docetaxel) was 0.00573 ± 0.00065 µM and the IC50 at 68 h [14] was 0.0648 ± 0.00519 µM. The “fold-resistance, docetaxel” value [15] was “(11.31)”.

With `CN1CC[C@H](c2c(O)cc(O)c3c(=O)cc(-c4ccccc4Cl)oc23)[C@H](O)C1` [Flavopiridol, flavopiridol] the “fold-resistance, flavopiridol” value [6] was “(64.9)”, the IC50 ([6]; read-out: IC50 of flavopiridol) was 6.2 ± 0.463 µM and the IC50 [8, 20] was 3.9 ± 0.414 µM. The “fold-resistance, flavopiridol” value ([8]; alone) was “(11.3)”, the IC50 ([9]; Homo sapiens, MCF7, alone, read-out: IC50 of flavopiridol) was 0.3443 ± 0.0021 µM and the “fold-resistance, flavopiridol” value ([9]; alone) was “(1.0)^c”. The “fold-resistance, flavopiridol” value ([10]; alone) was “(1.0)^c”, the IC50 ([10]; alone, read-out: IC50 of flavopiridol) was 0.0961 ± 0.0096 µM and the IC50 [11, 20] was 0.164 ± 0.0171 µM. The “fold-resistance, flavopiridol” value ([11]; alone) was “(1.0)^c”, the IC50 [12, 20] was 0.699 ± 0.047 µM and the “fold-resistance, flavopiridol” value ([12]; alone) was “(7.3)”. The “fold-resistance, flavopiridol” value ([13]; MCF-7/Flv1000, alone) was “(19.9)”, the IC50 ([13]; MCF-7 FLV1000, read-out: IC50 of flavopiridol) was 6.86 ± 0.479 µM and the “fold-resistance, flavopiridol” value [16] was “(4.6)”. For the same compound, the “fold-resistance, flavopiridol” value [17] was “(1.7)” and the “fold-resistance, flavopiridol” value [18] was “(2.4)”.
